According to patent US20240300959A1, “BALASUBRAMIDE DERIVATIVE AND USE THEREOF IN PREPARATION OF MEDICINE FOR TREATING ACUTE LUNG INJURY” (Guangdong Pharmaceutical University, priority 2023, published 2024):
“And” between values parts separate entries of the source, which are not always exact repeats. Equal entries are not always repeated.

What was measured:
RAW264.7 cells [1] = assay: CCK-8 cell viability of RAW264.7 macrophages at different concentrations of (+)3C-20 (LPS experiment); type: cell-based, mice; conditions: RAW264.7 cell viability
Protocol: RAW264.7 cells were inoculated into a 96-well plate at a density of 1×10^5 per well. When the cell density was 70%-80%, the RAW264.7 cells were pretreated with (+)3C-20 ([…]). After 3 h, lipopolysaccharide (LPS, 100 ng/mL) was added into all wells for action for 2 h except for a control group. The expression level of an inflammatory factor TNF-α in a cell supernatant was detected according to an operation instruction of a commercial ELISA kit, and the cell viability at different administration concentrations of (+)3C-20 was determined according to an operation instruction of a CCK-8 kit.

[2] = test system: mice with acute lung injury caused by intratracheal instillation of lipopolysaccharide; assay: Survival rate of mice with acute lung injury caused by intratracheal instillation of LPS; type: in vivo, ICR mice; conditions: 50 mg/kg, LPS 20 mg/kg it, checked up to 72 h
Protocol: Grouping and administration of animals: 45 male ICR mice were randomly divided into 5 groups according to the body weight, including a control group, a model group, a positive dexamethasone (5 mg/kg) group, a (+)3C-20 (10 mg/kg) group and a (+)3C-20 (50 mg/kg) group, with 9 mice in each group. Drug preparation, an administration method and a modeling method were the same as those in Example 7. With the time of intratracheal instillation of LPS as 0 h, the survival state of the mice was checked at the time points of 4 h, 12 h, 16 h, 20 h, 24 h, 36 h, 48 h, 60 h and 72 h, and a survival curve was drawn based on statistics. Results are shown in FIG. 13 (where compared with LPS (20 mg/kg), ***P is less than 0.001).

[3] = test system: TNF-α in bone marrow derived macrophages (BMDMs) stimulated by lipopolysaccharide; assay: TNF-α ELISA in LPS-stimulated bone marrow derived macrophages; type: cell-based, C57BL/6J mice; conditions: for Percentage of TNF-α in a model group (%): LPS 100 ng/mL 3 h
Protocol: (1) Collection of bone marrow derived macrophages (BMDMs): C57BL/6J mice were sacrificed by dislocation of cervical vertebra, completely soaked and sterilized with 75% ethanol and placed faceup on a mouse board to fix the four limbs, the skin of the hind limbs was cut, the limbs were cut at ankle joints and femoral joints, and muscles and knee joints were removed. Precooled serum-free DMEM was sucked with a 1 mL syringe to rinse the bone marrow until a leg bone turned white, a rinsing solution was filtered with a 200-mesh filter membrane and then collected into a 15 mL centrifuge tube, centrifugation was performed at 500×g for 5 min, a supernatant was discarded, and a cell precipitate was resuspended with 1 mL of a red blood cell lysis buffer. After stomatocytosis was performed for 1 min, 5 mL of DMEM was added to stop the stomatocytosis, centrifugation was performed at 500×g for 5 min, a supernatant was discarded, and cells at a lower layer were resuspended overnight with DMEM containing 10% of FBS. Monocytes were collected by centrifugation and then resuspended with a DMEM culture medium containing 20% of FBS, and M-CSF was added at a final concentration of 25 ng/mL. The cells were inoculated into a 96-well plate at a density of 6×10^5, cultured in a cell incubator with a CO2 concentration of 5% at 37° C. for 48 h, and then cultured by adding M-CSF with a final concentration of 25 ng/mL into each well for 48 h until the monocytes were subjected to adherent culture and differentiation to obtain macrophages.
The expression level of an inflammatory factor TNF-α in a cell supernatant was detected according to an operation instruction of a commercial ELISA kit, and the cell viability at different administration concentrations of (+)3C-20 was determined according to an operation instruction of a CCK-8 kit.

RAW264.7 cells [4] = assay: Cytotoxicity test, CCK-8 cell viability of RAW264.7 cells (24 h); type: cell-based, mice; conditions: 10 μM, RAW264.7 cell viability
Protocol: RAW264.7 cells were inoculated into a 96-well plate at a density of 1×10^5 per well. When the cell density was 70%-80%, the RAW264.7 cells were pretreated with 10 mM working solutions prepared from 18 balasubramide derivatives at a final concentration of 10 μM for 24 h, and then the cell viability was determined by a CCK-8 method.

O=C(CCc1ccc(C(F)(F)F)cc1)O[C@@H]1C(=O)NCCc2c([nH]c3ccccc23)[C@H]1c1ccc(C(F)(F)F)cc1 [(+)-3C-20]
Percentage of CCK-8 in a model group (%) (RAW264.7 cells [1]; 0.1 μM): 108.6 ± 1.49% | Percentage of CCK-8 in a model group (%) (RAW264.7 cells [1]; 0.5 μM): 106.11 ± 2.44% | Percentage of CCK-8 in a model group (%) (RAW264.7 cells [1]; 1 μM): 106.01 ± 1.75% | Percentage of CCK-8 in a model group (%) (RAW264.7 cells [1]; 2 μM): 106.41 ± 3.04% | Percentage of CCK-8 in a model group (%) (RAW264.7 cells [1]; 5 μM): 105.55 ± 1.06% | Percentage of CCK-8 in a model group (%) (RAW264.7 cells [1]; 10 μM): 96.64 ± 1.45% | Percentage of CCK-8 in a model group (%) (RAW264.7 cells [1]; 20 μM): 95.83 ± 2.29% | survival rate of the model mice, in words [2]: can obviously improve the survival rate | Percentage of TNF-α in a model group (%) ([3]; 0.1 μM): 88.17 ± 7.91% | Percentage of TNF-α in a model group (%) ([3]; 1 μM): 86.35 ± 7.41% | Percentage of TNF-α in a model group (%) ([3]; 2.5 μM): 62.94 ± 8.54 % | Percentage of TNF-α in a model group (%) ([3]; 5 μM): 35.12 ± 4.63 % | effective dose for inhibiting the expression of TNF-α for the BMDMs ([3]; LPS): 2.5 μM or 5 μM | Percentage of CCK-8 in a model group (%) (RAW264.7 cells [4]): 103.97 ± 3.88% and 95.04 ± 3.22%
